Assay [1] concerns the target T1, NPPase from barley leaves (Hordeum vulgare, UniProt Q687E1).
T1 sequence (Q687E1 19-368): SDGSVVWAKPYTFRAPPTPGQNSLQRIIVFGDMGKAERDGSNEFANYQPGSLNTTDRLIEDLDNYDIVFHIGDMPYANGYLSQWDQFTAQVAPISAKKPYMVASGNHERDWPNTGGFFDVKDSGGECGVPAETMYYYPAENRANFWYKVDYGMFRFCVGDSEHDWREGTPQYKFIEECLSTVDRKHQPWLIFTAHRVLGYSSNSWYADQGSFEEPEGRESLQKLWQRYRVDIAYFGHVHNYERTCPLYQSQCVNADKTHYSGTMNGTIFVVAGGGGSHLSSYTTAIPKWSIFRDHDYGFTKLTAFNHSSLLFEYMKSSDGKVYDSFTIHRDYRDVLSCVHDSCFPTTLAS
Briefly: Enzymatic test of soluble NPPase from barley leaves: kinetic parameters, substrate specificity, effectors. The note with it: for effect on NPPase activity (inhibition) / hydrolysis by NPPase (substrate recognition): qualitative; for Vmax: Vmax in % in relation to ADPG, NPPase from barley leaves; for Km: substrate of NPPase from barley leaves.

A further assay deals with NPPase from rice leaves (Oryza sativa, UniProt Q0X0G2). Briefly: Kinetic parameters and substrate specificity of the NPPase from rice leaves. The note with it: substrate of NPPase from rice leaves.
Chain of NPPase from rice leaves (Q0X0G2 26-623 limits assumed): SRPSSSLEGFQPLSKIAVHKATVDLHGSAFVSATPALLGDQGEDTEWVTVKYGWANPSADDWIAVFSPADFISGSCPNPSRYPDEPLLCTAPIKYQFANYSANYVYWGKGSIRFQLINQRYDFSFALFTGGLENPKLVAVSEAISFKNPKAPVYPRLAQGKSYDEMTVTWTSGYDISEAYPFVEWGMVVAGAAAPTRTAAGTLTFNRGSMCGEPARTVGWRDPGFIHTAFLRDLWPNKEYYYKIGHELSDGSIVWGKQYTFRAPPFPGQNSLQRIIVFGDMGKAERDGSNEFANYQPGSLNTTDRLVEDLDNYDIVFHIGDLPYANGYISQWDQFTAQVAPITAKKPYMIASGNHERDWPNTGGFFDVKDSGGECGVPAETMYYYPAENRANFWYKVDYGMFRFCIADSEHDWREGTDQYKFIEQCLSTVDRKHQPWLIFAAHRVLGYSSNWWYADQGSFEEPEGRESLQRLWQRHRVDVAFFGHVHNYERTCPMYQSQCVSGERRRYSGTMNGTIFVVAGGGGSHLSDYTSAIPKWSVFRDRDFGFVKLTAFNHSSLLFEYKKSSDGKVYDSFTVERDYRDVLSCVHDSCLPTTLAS

On to `O=C(O)[C@H](O)COP(=O)(O)O` [3-phosphoglycerate], for which, in assay [1], the “effect on NPPase activity (inhibition)” value was “inhibited” and the “hydrolysis by NPPase (substrate recognition)” value (from here on “hydrolysis by NPPase”) is given as “does not hydrolyse”.
For `Nc1ncnc2c1ncn2[C@@H]1O[C@H](COP(=O)(O)OP(=O)(O)O[C@H]2O[C@H](CO)[C@@H](O)[C@H](O)[C@H]2O)[C@@H](O)[C@H]1O` [ADPG, ADPglucose], in assay [1], the Vmax was found to be 100% and the “hydrolysis by NPPase” value was “catalyses the hydrolysis”.
For `Nc1ncnc2c1ncn2[C@@H]1O[C@H](COP(=O)(O)OP(=O)(O)O)[C@@H](O)[C@H]1O` [ADP], in assay [1], the Vmax worked out at 40% and the “effect on NPPase activity (inhibition)” value is “inhibited”.
As for `Nc1ncnc2c1ncn2[C@@H]1O[C@H](COP(=O)(O)OP(=O)(O)O[C@H]2O[C@H](CO)[C@@H](O)[C@H](O)[C@@H]2O)[C@@H](O)[C@H]1O` [ADPmannose, ADP-mannose], the Vmax in assay [1] worked out at 30%.
As to `Nc1ncnc2c1ncn2[C@@H]1O[C@H](COP(=O)(O)O)[C@@H](O)[C@H]1O` [AMP], in assay [1], the “effect on NPPase activity (inhibition)” value is recorded as “inhibited” and the “hydrolysis by NPPase” value is “does not hydrolyse”.
For `Nc1ncnc2c1ncn2[C@@H]1O[C@H](COP(=O)(O)OS(=O)(=O)O)[C@@H](O)[C@H]1O` [APS, adenosine 5′-phosphosulphate], on NPPase from rice leaves, the Vmax is 282 μmol min^−1 (mg protein)^−1.
Consider `Nc1ccn([C@@H]2O[C@H](COP(=O)(O)OP(=O)(O)O[C@H]3O[C@H](CO)[C@@H](O)[C@H](O)[C@H]3O)[C@@H](O)[C@H]2O)c(=O)n1` [CDPG, CDP-glucose], for which, in assay [1], the Vmax amounted to 114%.
Regarding `O=C[C@H](O)[C@@H](O)[C@H](O)[C@H](O)COP(=O)(O)O` [G6P, glucose-6-phosphate], in assay [1], the “hydrolysis by NPPase” value was “does not hydrolyse”.
Still for that read-out and setting: as for `Nc1nc2c(ncn2[C@@H]2O[C@H](COP(=O)(O)OP(=O)(O)O[C@H]3O[C@H](CO)[C@@H](O)[C@H](O)[C@H]3O)[C@@H](O)[C@H]2O)c(=O)[nH]1` [GDP-glucose], the entry is “recognizes”.
`Nc1nc2c(ncn2[C@@H]2O[C@H](COP(=O)(O)OP(=O)(O)O[C@H]3O[C@H](CO)[C@@H](O)[C@H](O)[C@@H]3O)[C@@H](O)[C@H]2O)c(=O)[nH]1` [GDPmannose, GDP-mannose]: the Vmax in assay [1] stood at 30%.
Consider `NC(=O)c1ccc[n+]([C@@H]2O[C@H](COP(=O)([O-])OP(=O)(O)OC[C@H]3O[C@@H](n4cnc5c(N)ncnc54)[C@H](OP(=O)(O)O)[C@@H]3O)[C@@H](O)[C@H]2O)c1` [NADP^+], for which, in assay [1], the Vmax result is recorded as “n.q” and the Km result was “n.q”.
Turning to `NC(=O)c1ccc[n+]([C@@H]2O[C@H](COP(=O)(O)OP(=O)(O)OC[C@H]3O[C@@H](n4cnc5c(N)ncnc54)[C@H](O)[C@@H]3O)[C@@H](O)[C@H]2O)c1` [NAD^+], the Vmax in assay [1] was determined as 100%.
Take `Nc1ncnc2c1ncn2[C@@H]1O[C@H](COP(=O)(O)O)[C@@H](O)[C@H]1O` [PAP, adenosine-5′-phosphate]: in assay [1], the Vmax result is given as “n.q” and the Km result is on record as “n.q”.
Consider `O=[N+]([O-])c1ccc(OP(=O)(O)O)cc1` [PNPP], for which the Vmax in assay [1] was 100%.
In the case of `O=P(O)(O)OP(=O)(O)O` [PPi, inorganic pyrophosphate], on NPPase from rice leaves, the Vmax was 176 μmol min^−1 (mg protein)^−1.
In the case of `O=[N+]([O-])c1ccc(OP(=O)(O)Oc2ccc([N+](=O)[O-])cc2)cc1` [bis-PNPP, bis-paranitrophenylphosphate], in assay [1], the Vmax is listed as 100% and the “hydrolysis by NPPase” value is on record as “hydrolyses”.
As to `[O]=[Mo](=[O])([O-])[O-]` [molybdate], the “effect on NPPase activity (inhibition)” value in assay [1] was “strongly inhibited”.
On the same count and under the same terms, the value for `OCCS` [β-mercaptoethanol] was “not affected”.
Consider ADP-ribose [ADPribose], for which the Vmax in assay [1] worked out at 100%.
Turning to arsenate, the “effect on NPPase activity (inhibition)” value in assay [1] is given as “strongly inhibited”.

These data come from patent US20060242739A1, “Plant nucleotide-sugar pyrophosphatase/phosphodiesterase (nppase), method of obtaining same and use of same in the production of assay devices and in the production of transgenic plants” (Universidad Publica De Navarra, priority 2002, published 2006).
